Results from US6737383B1, “Herbicidal oxadiazolidines” (priority 1999, dated 2004).

Assays:
bedstraw = experiment: Test B pre/postemergence bedstraw; format: in vivo, Galium aparine
How it was run: (§1)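 Herbicidal effect was estimated by eye on a ten-point control scale after plants spent twelve to sixteen days in a greenhouse following soil or foliar treatment. Foliar sprays targeted plants at one to four leaves; all doses were formulated in a non-phytotoxic solvent with surfactant.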

surinam grass = experiment: Test B pre/postemergence surinam grass; format: in vivo, Brachiaria decumbens
How it was run: as §1

cocklebur = experiment: Test B pre/postemergence cocklebur; format: in vivo, Xanthium strumarium
How it was run: as §1

wheat = experiment: Test B pre/postemergence wheat; format: in vivo, Triticum aestivum
How it was run: as §1

duck salad = experiment: Test B flood test duck salad; format: in vivo, Heteranthera limosa
How it was run: (§2)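 Flood test on plants grown to the 2-leaf stage; treated plants kept in greenhouse twelve to sixteen days, then visually rated against controls on a 0 (no effect) to 10 (complete control) scale.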

giant foxtail = experiment: Test B pre/postemergence giant foxtail; format: in vivo, Setaria faberii
How it was run: as §1

rape = experiment: Test B pre/postemergence rape; format: in vivo, Brassica napus
How it was run: as §1

blackgrass = experiment: Test B pre/postemergence blackgrass; format: in vivo, Alopecurus myosuroides
How it was run: as §1

crabgrass = experiment: Test B pre/postemergence crabgrass; format: in vivo, Digitaria sanguinalis
How it was run: as §1

smallflower flatsedge = experiment: Test B flood test smallflower flatsedge; format: in vivo, Cyperus difformis
How it was run: as §2

rice = experiment: Test B flood test rice; format: in vivo, Oryza sativa
How it was run: as §2

sugar beet = experiment: Test B pre/postemergence sugar beet; format: in vivo, Beta vulgaris
How it was run: as §1

purple nutsedge = experiment: Test B pre/postemergence purple nutsedge; format: in vivo, Cyperus rotundus
How it was run: as §1

corn = experiment: Test B pre/postemergence corn; format: in vivo, Zea mays
How it was run: as §1

soybean = experiment: Test B pre/postemergence soybean; format: in vivo, Glycine max
How it was run: as §1

morningglory = experiment: Test B pre/postemergence morningglory; format: in vivo, Ipomoea hederacea
How it was run: as §1

pigweed = experiment: Test B pre/postemergence pigweed; format: in vivo, Amaranthus retroflexus
How it was run: as §1

wild oat = experiment: Test B pre/postemergence wild oat; format: in vivo, Avena fatua
How it was run: as §1

bamyardgrass = experiment: Test B flood test barnyardgrass; format: in vivo, Echinochloa crus-galli
How it was run: as §2

velvetleaf = experiment: Test B pre/postemergence velvetleaf; format: in vivo, Abutilon theophrasti
How it was run: as §1

[1] = Preemergence, Rate 62 g/ha, scale of 0 to 10 where 0 is no effect and 10 is complete control
[2] = Preemergence, Rate 250 g/ha, scale of 0 to 10 where 0 is no effect and 10 is complete control
[3] = Preemergence, Rate 500 g/ha, scale of 0 to 10 where 0 is no effect and 10 is complete control
[4] = Rate 62 g/ha, Postemergence, scale of 0 to 10 where 0 is no effect and 10 is complete control
[5] = Rate 125 g/ha, Postemergence, scale 0 to 10
[6] = Rate 125 g/ha, Preemergence, scale of 0 to 10 where 0 is no effect and 10 is complete control
[7] = Rate 500 g/ha, Postemergence, scale 0 to 10, 0 no effect, 10 complete control
[8] = Rate 62 g/ha, headed Pre-emergence (flood test species), scale 0 to 10 (0 no effect, 10 complete control)
[9] = Rate 125 g/ha, Pre-emergence, flood test species, scale 0 to 10 where 0 is no effect and 10 is complete control
[10] = Rate 250 g/ha, Pre-emergence, flood-test species, scale 0 to 10, 0 is no effect, 10 is complete control
[11] = Rate 500 g/ha, Pre-emergence, flood test species, scale 0 to 10 (0 no effect, 10 complete control)

CC(C)N(C(=O)n1oc(=O)n(CC(=O)OC(C)(C)C)c1=O)c1ccc(F)cc1 [Compound 265]
8: Bedstraw plant response rating (bedstraw; [7]) | Giant foxtail plant response rating (giant foxtail; [2]) | Giant foxtail plant response rating (giant foxtail; [6]) | Morningglory plant response rating (morningglory; [7])
5: Plant response rating (0 to 10; 0 is no effect, 10 is complete control), Blackgrass (blackgrass; Rate 250 g/ha, Postemergence) | Plant response rating, Wild oats (wild oat; [3])
4: Plant response rating, B. signalgrass (surinam grass; [3]) | Blackgrass plant response rating (blackgrass; [4]) | Blackgrass plant response rating (blackgrass; [5]) | Soybean plant response rating (soybean; [7]) | Redroot pigweed plant response rating (pigweed; [7])
10: Plant response rating, Giant foxtail (giant foxtail; [3])
1: Plant response rating, Wheat (wheat; [3]) | Plant response rating (0 to 10; 0 is no effect, 10 is complete control), Rape (rape; Rate 250 g/ha, Postemergence) | Crabgrass plant response rating (crabgrass; [1])
3: Plant response rating (0 to 10; 0 is no effect, 10 is complete control), Bedstraw (bedstraw; Rate 250 g/ha, Postemergence) | Rape plant response rating (rape; [7]) | Crabgrass plant response rating (crabgrass; [7]) | Sugarbeets plant response rating (sugar beet; [7]) | Plant response rating (0 to 10; 0 is no effect, 10 is complete control), Redroot pigweed (pigweed; Rate 250 g/ha, Postemergence) | Velvetleaf plant response rating (velvetleaf; [7])
6: Giant foxtail plant response rating (giant foxtail; [1]) | Plant response rating, Crabgrass (crabgrass; [3]) | Plant response rating (0 to 10; 0 is no effect, 10 is complete control), Morningglory (morningglory; Rate 250 g/ha, Postemergence)
7: Blackgrass plant response rating (blackgrass; [7])
0: Bedstraw plant response rating (bedstraw; [1]) | Bedstraw plant response rating (bedstraw; [2]) | Plant response rating, Bedstraw (bedstraw; [3]) | Bedstraw plant response rating (bedstraw; [4]) | Bedstraw plant response rating (bedstraw; [6]) | B. signalgrass plant response rating (surinam grass; [1]) | B. signalgrass plant response rating (surinam grass; [2]) | B. signalgrass plant response rating (surinam grass; [4]) | B. signalgrass plant response rating (surinam grass; Rate 125 g/ha, Postemergence, scale 0 (no effect) to 10 (complete control)) | B. signalgrass plant response rating (surinam grass; [6]) | Plant response rating (0 to 10; 0 is no effect, 10 is complete control), B. signalgrass (surinam grass; Rate 250 g/ha, Postemergence) | B. signalgrass plant response rating (surinam grass; [7]) | Cocklebur plant response rating (cocklebur; [1]) | Cocklebur plant response rating (cocklebur; [2]) | Cocklebur plant response rating (cocklebur; [4]) | Cocklebur plant response rating (cocklebur; [5]) | Cocklebur plant response rating (cocklebur; [6]) | Plant response rating (0 to 10; 0 is no effect, 10 is complete control), Cocklebur (cocklebur; Rate 250 g/ha, Postemergence) | Cocklebur plant response rating (cocklebur; [7]) | Wheat plant response rating (wheat; [1]) | Wheat plant response rating (wheat; [2]) | Wheat plant response rating (wheat; [6]) | Wheat plant response rating (wheat; [7]) | Ducksalad plant response rating (duck salad; [8]) | Ducksalad plant response rating (duck salad; [9]) | Ducksalad plant response rating (duck salad; [10]) | Ducksalad plant response rating (duck salad; [11]) | Rape plant response rating (rape; [1]) | Rape plant response rating (rape; [2]) | Plant response rating, Rape (rape; [3]) | Rape plant response rating (rape; [6]) | Blackgrass plant response rating (blackgrass; [1]) | Blackgrass plant response rating (blackgrass; [2]) | S. Flatsedge plant response rating (smallflower flatsedge; [8]) | S. Flatsedge plant response rating (smallflower flatsedge; [9]) | S. Flatsedge plant response rating (smallflower flatsedge; [10]) | S. Flatsedge plant response rating (smallflower flatsedge; [11]) | Rice plant response rating (rice; [8]) | Rice plant response rating (rice; [9]) | Rice plant response rating (rice; [10]) | Rice plant response rating (rice; [11]) | Sugarbeets plant response rating (sugar beet; [1]) | Sugarbeets plant response rating (sugar beet; [2]) | Plant response rating, Sugarbeets (sugar beet; [3]) | Sugarbeets plant response rating (sugar beet; [6]) | Nutsedge plant response rating (purple nutsedge; [1]) | Nutsedge plant response rating (purple nutsedge; [2]) | Plant response rating, Nutsedge (purple nutsedge; [3]) | Plant response rating (0 to 10; 0 is no effect, 10 is complete control), Nutsedge (purple nutsedge; Rate 250 g/ha, Postemergence) | Nutsedge plant response rating (purple nutsedge; [7]) | Corn plant response rating (corn; [1]) | Corn plant response rating (corn; [2]) | Plant response rating, Corn (corn; [3]) | Corn plant response rating (corn; [4]) | Corn plant response rating (corn; [5]) | Corn plant response rating (corn; [6]) | Plant response rating (0 to 10; 0 is no effect, 10 is complete control), Corn (corn; Rate 250 g/ha, Postemergence) | Corn plant response rating (corn; [7]) | Soybean plant response rating (soybean; [1]) | Soybean plant response rating (soybean; [2]) | Plant response rating, Soybean (soybean; [3]) | Soybean plant response rating (soybean; [6]) | Morningglory plant response rating (morningglory; [1]) | Morningglory plant response rating (morningglory; [2]) | Plant response rating, Morningglory (morningglory; [3]) | Morningglory plant response rating (morningglory; [6]) | Redroot pigweed plant response rating (pigweed; [1]) | Redroot pigweed plant response rating (pigweed; [2]) | Plant response rating, Redroot pigweed (pigweed; [3]) | Redroot pigweed plant response rating (pigweed; [6]) | Wild oats plant response rating (wild oat; [1]) | Wild oats plant response rating (wild oat; [6]) | Wild oats plant response rating (wild oat; [7]) | Barnyardgrass plant response rating (bamyardgrass; [8]) | Barnyardgrass plant response rating (bamyardgrass; [9]) | Barnyardgrass plant response rating (bamyardgrass; [10]) | Barnyardgrass plant response rating (bamyardgrass; [11]) | Velvetleaf plant response rating (velvetleaf; [1]) | Velvetleaf plant response rating (velvetleaf; [2]) | Plant response rating, Velvetleaf (velvetleaf; [3]) | Velvetleaf plant response rating (velvetleaf; [6])
2: Bedstraw plant response rating (bedstraw; [5]) | Plant response rating (0 to 10; 0 is no effect, 10 is complete control), Giant foxtail (giant foxtail; Rate 250 g/ha, Postemergence) | Giant foxtail plant response rating (giant foxtail; [7]) | Crabgrass plant response rating (crabgrass; [2]) | Crabgrass plant response rating (crabgrass; [6]) | Plant response rating (0 to 10; 0 is no effect, 10 is complete control), Crabgrass (crabgrass; Rate 250 g/ha, Postemergence) | Wild oats plant response rating (wild oat; [2])
